Measured values reported in paper PMC6222669, “The Inhibitory Effect of Flavonoid Aglycones on the Metabolic Activity of CYP3A4 Enzyme” (Molecules : A Journal of Synthetic Chemistry and Natural …, 2018).
Like-named read-outs stand apart in the source and are kept apart here. Values belong to the molecule of their own block, whether it stands above or below them.

Experiments:
CYP3A4 [1] = target: T1, CYP3A4 (Homo sapiens, UniProt P08684); assay: Metabolism dependent inhibition of CYP3A4 (testosterone 6β-hydroxylation, preincubation with NADPH generating system); settings: for activity at 15 min, 1 µM / inhibition at 15 min, 1 µM: human, pH 7.4, probe testosterone (200 µM; 6β-hydroxylation); for type of inhibition: concluded from metabolism dependent, time dependent and direct inhibition assays
CYP3A4 [2] = target: T1, CYP3A4; assay: Direct inhibition of CYP3A4 (no preincubation)
Procedure: (§1) Incubation mixture contained 5 pmol of the CYP3A4 enzyme.
(§2) If metabolism-dependent inhibition was determined, time dependent inhibition was assessed by preincubating flavonoids and enzymes, after which residual activity was determined by adding NADPH generating system along with substrate. In this instance, the direct inhibition was also tested without preincubation, i.e., NADPH generating system, was added to incubation mixture containing flavonoid and substrate.
(§3) All incubations were conducted in triplicate.

CYP3A4 [3] = target: T1, CYP3A4; assay: Time dependent inhibition of CYP3A4 (preincubation without NADPH); settings: 1 µM flavonoid; for Residual CYP3A4 activity: time dependent inhibition assay, preincubation without NADPH; for time dependent inhibition observed or not: confirmed in direct inhibition assay
Procedure: as §1, §2, §3

CYP3A4 [4] = target: T1, CYP3A4
CYP3A4 [5] = settings: cited from earlier work
CYP3A4 [6] = target: T1, CYP3A4; assay: in vitro; settings: pH 7.4
CYP3A4 [7] = settings: cited from earlier work; remark: listed apart in the source
porcine cytochrome p450 = settings: cited from earlier work; for Ki: competitive, ref 61 (Ekstrand et al.), read-out: inhibition constant
CYP3A4 [8] = tested on: CYP3A4; parameters: method as in ref 60 (Ding et al.); settings: HepG2 cell line; ref 60 (Ding et al.); cited from earlier work
CYP3A4 induction = tested on: CYP3A4 induction; parameters: method as in ref 64 (Li et al.); settings: through PXR, CAR and AhR; ref 64 (Li et al.); cited from earlier work
CYP3A4 [9] = tested on: CYP3A4; parameters: method as in ref 65 (von Moltke et al.); settings: ref 65 (von Moltke et al.); read-out: concentration giving 50% inhibition; cited from earlier work
CYP3A4 [10] = target: T1, CYP3A4; parameters: purchased Thermo Fisher Scientific (Waltham, MA, USA); host or cells: recombinant baculovirus system (baculosomes); method as in ref 55 (Takanaga et al.); settings: testosterone marker substrate; human liver microsomes and recombinant CYP3A4; ref 55 (Takanaga et al.); cited from earlier work
CYP3A4 [11] = target: T1, CYP3A4; parameters: purchased Thermo Fisher Scientific (Waltham, MA, USA); host or cells: recombinant baculovirus system (baculosomes); method as in ref 54 (Obermeier et al.); settings: nifedipine oxidation, human liver microsomes, uncompetitive; ref 54 (Obermeier et al.); read-out: inhibition constant; cited from earlier work

T1 sequence (P08684 2-503 limits assumed): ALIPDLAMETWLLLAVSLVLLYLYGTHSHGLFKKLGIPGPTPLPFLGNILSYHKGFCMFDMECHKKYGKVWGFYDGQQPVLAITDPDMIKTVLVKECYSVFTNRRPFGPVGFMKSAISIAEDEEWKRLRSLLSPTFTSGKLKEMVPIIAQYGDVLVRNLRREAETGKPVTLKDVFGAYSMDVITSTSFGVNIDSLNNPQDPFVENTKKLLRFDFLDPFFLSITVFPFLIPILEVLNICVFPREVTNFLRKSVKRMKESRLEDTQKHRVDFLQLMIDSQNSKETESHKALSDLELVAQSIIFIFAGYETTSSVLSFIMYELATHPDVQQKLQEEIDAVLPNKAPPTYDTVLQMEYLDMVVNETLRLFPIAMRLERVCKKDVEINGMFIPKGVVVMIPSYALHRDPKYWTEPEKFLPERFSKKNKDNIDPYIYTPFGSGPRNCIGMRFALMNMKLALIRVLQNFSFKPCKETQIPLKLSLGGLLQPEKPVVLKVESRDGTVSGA

activity at 15 min, 1 µM (CYP3A4 [1]): 5 ± 4% | inhibition at 15 min, 1 µM (CYP3A4 [1]): 95% | residual enzyme activity (CYP3A4 [2]; 1 µM flavonoid, direct inhibition assay, no preincubation): 46 ± 6% | Residual CYP3A4 activity (CYP3A4 [3]): 57 ± 10%
SMILES: COc1ccc(-c2cc(=O)c3c(O)cc(O)cc3o2)cc1 [Acacetin]
type of inhibition (CYP3A4 [1]): combined irreversible and reversible inhibition

activity at 15 min, 1 µM (CYP3A4 [1]): 48 ± 24%
SMILES: O=c1c(O)c(-c2ccccc2)oc2cc(O)cc(O)c12 [Galangin]

activity at 15 min, 1 µM (CYP3A4 [1]): 101 ± 14%
SMILES: O=c1c(O)c(-c2ccc(O)cc2)oc2cc(O)cc(O)c12 [Kaempferol]

activity at 15 min, 1 µM (CYP3A4 [1]): 112 ± 31%
SMILES: O=c1cc(-c2ccc(O)c(O)c2)oc2cc(O)cc(O)c12 [Luteolin]

activity at 15 min, 1 µM (CYP3A4 [1]): 122 ± 8%
SMILES: O=c1c(O)c(-c2ccc(O)cc2O)oc2cc(O)cc(O)c12 [Morin]

activity at 15 min, 1 µM (CYP3A4 [1]): 133 ± 35%
SMILES: O=c1c(O)c(-c2cc(O)c(O)c(O)c2)oc2cc(O)cc(O)c12 [Myricetin]

activity at 15 min, 1 µM (CYP3A4 [1]): 126 ± 10%
SMILES: O=c1c(O)c(-c2ccc(O)c(O)c2)oc2cc(O)cc(O)c12 [Quercetin]

activity at 15 min, 1 µM (CYP3A4 [1]): 117 ± 84%
SMILES: COc1cc(O)c2c(=O)c(O)c(-c3ccc(O)c(O)c3)oc2c1 [Rhamnetin]

activity at 15 min, 1 µM (CYP3A4 [1]): 195 ± 29%
SMILES: COc1ccc(-c2oc3cc(O)cc(O)c3c(=O)c2O)cc1O [Tamarixetin]
influence on CYP3A4 induction (CYP3A4 induction): no influence | IC50 (CYP3A4 [9]): < 10 µM

activity at 15 min, 1 µM (CYP3A4 [1]): 102 ± 15%
SMILES: COc1cc(O)c2c(=O)cc(-c3ccccc3)oc2c1 [Techtocrysin]

Continued, molecule first:

SMILES: O=c1c(O)c(-c2ccccc2)oc2ccc(O)cc12 [3,6-dihydroxyflav., 3,6-dihydroxyflavon]
activity at 15 min, 1 µM (CYP3A4 [1]): 100 ± 14%

SMILES: O=c1c(O)c(-c2ccccc2)oc2cc(O)ccc12 [3,7-dihydroxyflav., 3,7-dihydroxyflavon]
activity at 15 min, 1 µM (CYP3A4 [1]): 91 ± 27%

SMILES: O=c1cc(-c2ccccc2)oc2ccc(O)cc12 [6-hydroxyflavone]
activity at 15 min, 1 µM (CYP3A4 [1]): 83 ± 14%

SMILES: O=c1cc(-c2ccccc2)oc2cc(O)ccc12 [7-hydroxyflavone]
activity at 15 min, 1 µM (CYP3A4 [1]): 78 ± 14%

SMILES: O=c1cc(-c2ccc(O)cc2)oc2cc(O)cc(O)c12 [Apigenin]
type of inhibition (CYP3A4 [4]): reversible inhibition | residual enzyme activity (CYP3A4 [2]; human, 30 min, 1 µM, pH 7.4): 35 ± 18% | type of inhibition (CYP3A4 [5]; ref 45 (Kimura et al.)): […] | Ki (CYP3A4 [5]; reversible inhibition, ref 44 (Li et al.), read-out: inhibition constant): […] | activity at 15 min, 1 µM (CYP3A4 [6]): 24 ± 3% | inhibition at 15 min, 1 µM (CYP3A4 [6]): 76% | Residual CYP3A4 activity (CYP3A4 [3]): 34 ± 10%

SMILES: COc1cc(OC)c2c(=O)cc(-c3ccccc3)oc2c1 [Chrysin-dimethylether]
type of inhibition (CYP3A4 [1]): pure irreversible inhibition | activity at 15 min, 1 µM (CYP3A4 [1]): 61 ± 21% | time dependent inhibition observed or not (CYP3A4 [3]): No time dependent inhibition

SMILES: O=c1cc(-c2ccccc2)oc2cc(O)cc(O)c12 [Chrysin]
type of inhibition (CYP3A4 [4]): combined irreversible and reversible inhibition | residual enzyme activity (CYP3A4 [2]; human, 30 min, 1 µM, pH 7.4): 54 ± 23% | activity at 15 min, 1 µM (CYP3A4 [6]): 17 ± 3% | Residual CYP3A4 activity (CYP3A4 [3]): 45 ± 3% | effect on 1′-hydroxilation of midazolam (CYP3A4 [7]): inhibition of CYP3A4 activity was not observed

SMILES: O=c1cc(-c2ccccc2)oc2ccccc12 [Flavone]
activity at 15 min, 1 µM (CYP3A4 [1]): 81 ± 16% | effect on 1′-hydroxilation of midazolam (CYP3A4 [7]): stimulate, rather than inhibit

SMILES: O=c1c(-c2ccc(O)cc2)coc2cc(O)cc(O)c12 [Genistein]
activity at 15 min, 1 µM (CYP3A4 [1]): 72 ± 24%

SMILES: COc1ccc([C@@H]2CC(=O)c3c(O)cc(O)cc3O2)cc1O [Hesperetin]
activity at 15 min, 1 µM (CYP3A4 [6]): 49 ± 19%

SMILES: COc1cc(-c2oc3cc(O)cc(O)c3c(=O)c2O)ccc1O [Isohramnetin, Isorhamnetin]
Ki (porcine cytochrome p450; female pigs): 94 µM | Ki (porcine cytochrome p450; male pigs): 71 µM | competitive inhibition at low concentration (porcine cytochrome p450; under 16 µM concentration): no competitive inhibition was observed | type of inhibition (CYP3A4 [1]): pure irreversible inhibition | activity at 15 min, 1 µM (CYP3A4 [1]): 73 ± 6% | change in activity of CYP3A4 (CYP3A4 [8]): did not observe change in activity | time dependent inhibition observed or not (CYP3A4 [3]): No time dependent inhibition

SMILES: O=C1C[C@@H](c2ccc(O)cc2)Oc2cc(O)cc(O)c21 [Naringenin]
activity at 15 min, 1 µM (CYP3A4 [1]): 65 ± 24%

SMILES: COc1cc(O)c2c(c1)OC(c1ccccc1)CC2=O (stereo not drawn) [Pinocembrin-7-methylether]
activity at 15 min, 1 µM (CYP3A4 [1]): 83 ± 2%

SMILES: O=C1C[C@@H](c2ccccc2)Oc2cc(O)cc(O)c21 [Pinocembrin]
type of inhibition (CYP3A4 [1]): pure irreversible inhibition | activity at 15 min, 1 µM (CYP3A4 [1]): 50 ± 15% | inhibition at 15 min, 1 µM (CYP3A4 [1]): 50% | time dependent inhibition observed or not (CYP3A4 [3]): No time dependent inhibition

SMILES: COc1cc(O)c2c(=O)c(-c3ccc(O)cc3)coc2c1 [Prunetin]
activity at 15 min, 1 µM (CYP3A4 [1]): 74 ± 14%

SMILES: COc1cc(O)c2c(c1)O[C@H](c1ccc(O)cc1)CC2=O [Sakuranetin]
activity at 15 min, 1 µM (CYP3A4 [6]): 94 ± 45%

SMILES: COc1ccc(-c2cc(=O)c3c(OC)c(OC)c(OC)c(OC)c3o2)cc1 [Tangeretin]
type of inhibition (CYP3A4 [4]): pure irreversible inhibition | influence on CYP3A4 activity (CYP3A4 [10]): no influence | activity at 15 min, 1 µM (CYP3A4 [6]): 42 ± 3% | Ki (CYP3A4 [11]): 72 µM | time dependent inhibition observed or not (CYP3A4 [3]): No time dependent inhibition | effect on 1′-hydroxilation of midazolam (CYP3A4 [7]): stimulate, rather than inhibit
